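In this assay, cells in 96-well plates receive the compound at five concentrations for 48 hours. Endpoints are linearly interpolated between the surrounding concentrations. GI50 is the concentration that inhibits growth by half.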 Activity calls are given as the source filed them. Rule as the data show it: active = GI50 up to about 1.1 µM and inactive = higher.
Assays:
Assay in all cases: NCI anticancer screen, dose series, 48 h
[1] = test system: SNB-19
[2] = test system: SF-268
[3] = test system: BT-549
[4] = test system: KM12
[5] = test system: SK-OV-3
[6] = test system: SNB-75
[7] = test system: OVCAR-5
[8] = test system: OVCAR-8
[9] = test system: A549
[10] = test system: EKVX
[11] = test system: MDA-N
[12] = test system: HCT-116
[13] = test system: HOP-92
[14] = test system: NCI-H23
[15] = test system: U-251
[16] = test system: LOX IMVI
[17] = test system: PC-3
[18] = test system: UACC-62
[19] = test system: SR
[20] = test system: RPMI-8226
[21] = test system: MDA-MB-231
[22] = test system: Malme-3M
[23] = test system: K562
[24] = test system: HL-60
[25] = test system: M14
[26] = test system: UO-31
[27] = test system: SK-MEL-5
[28] = test system: IGROV-1
[29] = test system: SN12C
[30] = test system: MCF7
[31] = test system: 786-0
[32] = test system: OVCAR-4
[33] = test system: A498
[34] = test system: NCI/ADR-RES
[35] = test system: SW-620
[36] = test system: OVCAR-3
[37] = test system: ACHN
[38] = test system: DU-145
[39] = test system: HOP-62
[40] = test system: SK-MEL-28
[41] = test system: CCRF-CEM
[42] = test system: MOLT-4
[43] = test system: NCI-H522
[44] = test system: RXF 393
[45] = test system: MDA-MB-435
[46] = test system: T47D
[47] = test system: SK-MEL-2
[48] = test system: TK-10
[49] = test system: SF-539
[50] = test system: HT-29
[51] = test system: CAKI-1
[52] = test system: NCI-H460
[53] = test system: UACC-257
[54] = test system: COLO 205
[55] = test system: HCT-15
[56] = test system: Hs-578T
[57] = test system: SF-295

## CN(C(=O)Cc1cc(Cl)c(Cl)cc1N=C=S)[C@H]1CCCC[C@@H]1N1CCCC1
[1]
  GI50: 13.9 µM (inactive)
[2]
  GI50: 15.8 µM (inactive)
[3]
  GI50: 15.1 µM (inactive)
[4]
  GI50: 14.8 µM (inactive)
[5]
  GI50: 18 µM (inactive)
[6]
  GI50: 14.6 µM (inactive)
[7]
  GI50: 16.9 µM (inactive)
[8]
  GI50: 14 µM (inactive)
[9]
  GI50: 15.4 µM (inactive)
[10]
  GI50: 17.3 µM (inactive)
[11]
  GI50: 14.8 µM (inactive)
[12]
  GI50: 8.49 µM (inactive)
[13]
  GI50: 9.42 µM (inactive)
[14]
  GI50: 15.2 µM (inactive)
[15]
  GI50: 14.9 µM (inactive)
[16]
  GI50: 5.9 µM (inactive)
[17]
  GI50: 13.5 µM (inactive)
[18]
  GI50: 16.4 µM (inactive)
[19]
  GI50: 1.64 µM (inactive)
[20]
  GI50: 7.96 µM (inactive)
[21]
  GI50: 14.3 µM (inactive)
[22]
  GI50: 17.4 µM (inactive)
[23]
  GI50: 2.02 µM (inactive)
[24]
  GI50: 10.1 µM (inactive)
[25]
  GI50: 15.5 µM (inactive)
[26]
  GI50: 15.5 µM (inactive)
[27]
  GI50: 14 µM (inactive)
[28]
  GI50: 13.9 µM (inactive)
[29]
  GI50: 16.6 µM (inactive)
[30]
  GI50: 13.3 µM (inactive)
[31]
  GI50: 12.7 µM (inactive)
[32]
  GI50: 13.3 µM (inactive)
[33]
  GI50: 13.5 µM (inactive)
[34]
  GI50: 17.8 µM (inactive)
[35]
  GI50: 5.47 µM (inactive)
[36]
  GI50: 15.6 µM (inactive)
[37]
  GI50: 15.4 µM (inactive)
[38]
  GI50: 14.7 µM (inactive)
[39]
  GI50: 14.2 µM (inactive)
[40]
  GI50: 1.39 µM (inactive)
[41]
  GI50: 2.07 µM (inactive)
[42]
  GI50: 3 µM (inactive)
[43]
  GI50: 13.1 µM (inactive)
[44]
  GI50: 4.45 µM (inactive)
[45]
  GI50: 6.49 µM (inactive)
[46]
  GI50: 16.1 µM (inactive)
[47]
  GI50: 15.3 µM (inactive)
[48]
  GI50: 10.1 µM (inactive)
[49]
  GI50: 23.6 µM (inactive)
[50]
  GI50: 5.94 µM (inactive)
[51]
  GI50: 15.8 µM (inactive)
[52]
  GI50: 7.36 µM (inactive)
[53]
  GI50: 14.6 µM (inactive)
[54]
  GI50: 9.73 µM (inactive)
[55]
  GI50: 13.6 µM
[56]
  GI50: 15.5 µM (inactive)
[57]
  GI50: 16.7 µM (inactive)
